According to patent US20090142735A1, “Bacterial intraoral disease treatment composition, washing treatment solution, hemostatic treatment solution, and bacterial intraoral disease treatment method” (priority 2005, published 2009):

Assay: Test Example 1: penetrability of the base (migration of food red from the drug application seat)
Type: physicochemical
Conditions: 100% humidity, root embedded in gypsum block
Source text: FIG. 7 depicts a cross-sectional view of a sample 50 according to the present test example. First, the mandibular first premolar affected with apical periodontitis was drilled with a #70 […] to enlarge the root canal and further the root canal 51 was filled using a gutta-percha point and a sealer, and by pressing them sideways. […] At the bottom of this drug application seat 52, two small pieces 53 (about 1.0 mm in diameter) of each base shown in Table 1 added with food red were loaded. Furthermore, cotton ball (not shown) was placed so as to cover these small pieces 53, and “Caviton (registered trade mark)” (G C Co., Ltd.) was layered over this cotton ball to form the covering layer 54, thereby preparing the sample 50. After the root portion of each sample 50 was embedded in an ordinary gypsum block 55, it was stored under 100% humidity. Migration distances of food red from the drug application seat for storing times of 24 hours and 48 hours were measured to assess the penetrability of the base contained in each sample. In this case, the migration distance was determined as the longest distance in the direction of depth (in the direction of the arrow D in FIG. 7) of the area reached by coloring due to food red when the sample 50 was observed from outside.

Row | SMILES | Migration distance of food red from drug application seat (depth direction) (storing time 24 hours) [mm] | Migration distance of food red from drug application seat (depth direction) (storing time 48 hours) [mm]
1 | O [Sample 1, Water] | 2.0 | 4.0
2 | CC(O)CO (stereo not drawn) [Sample 2, Propylene glycol] | 2.0 | 3.5
3 | OCC(O)CO [Sample 6, Glycerin] | 5.0 | 7.0
